The values below are quoted from earlier work in patent publication US20120277309A1, “METHODS OF CONTROLLING VENOUS IRRITATION ASSOCIATED WITH THE TREATMENT OF A CARDIAC DISORDER” (BAXTER HEALTHCARE S.A., priority 2011, published 2012).

Structures can show the parent of a compound that is named as a salt.

One series has as its system beta-adrenergic. As to conditions: disclosed in WO 88/01614.
For series [1] the following is noted: packaging insert, Baxter; incidence increases with concentration.

`COC(=O)CCc1ccc(OC[C@@H](O)CNC(C)C)cc1.Cl` (single isomer, unassigned) [S-isomer of esmolol hydrochloride]: the “Potency as a beta-adrenergic-blocking agent relative to an equivalent amount of the racemic mixture” value with beta-adrenergic is “about twice”.

In the case of `COC(=O)CCc1ccc(OCC(O)CNC(C)C)cc1` (racemic) [R,S-esmolol hydrochloride, methyl-3-[4-(2-hydroxy-3-isopropylamino)propoxy]phenylpropionate hydrochloride], the “Venous irritation in patients on infusion” value in series [1] is listed as “A significant number of patients experience venous irritation at the infusion site”.
